Measurements reported in BindingDB's records for doi:10.1021/jm991049m (University of Camerino, 1999).

Assays:
[1] = Predicted affinity for imidazoline receptor I2 by three field CoMFA model
[2] = as above; remark: listed apart in the source
[3] = as above; remark: listed apart in the source

SMILES	Ki [2]	further results
c1ccc([C@H]2C[C@@H]2C2=NCCN2)cc1		Ki [1]: 251 nM
c1ccc([C@H]2C[C@H]2C2=NCCN2)cc1	724 nM	
c1ccc([C@@H]2C[C@H]2C2=NCCN2)cc1		Ki [3]: 23 nM
c1ccc([C@@H]2C[C@@H]2C2=NCCN2)cc1	331 nM	
